Measurements from patent US10160747B2, “Compounds and methods for kinase modulation, and indications therefor” (Plexxikon Inc., priority 2016, dated 2018).

Molecular target: T1, BA/F3-FLT3-ITD + D835Y (Homo sapiens, UniProt P36888, D835Y, cells depend on it, form not given)
T1 sequence (P36888 with tags, fused parts or gaps INS600HVDFREYEYD/D835Y): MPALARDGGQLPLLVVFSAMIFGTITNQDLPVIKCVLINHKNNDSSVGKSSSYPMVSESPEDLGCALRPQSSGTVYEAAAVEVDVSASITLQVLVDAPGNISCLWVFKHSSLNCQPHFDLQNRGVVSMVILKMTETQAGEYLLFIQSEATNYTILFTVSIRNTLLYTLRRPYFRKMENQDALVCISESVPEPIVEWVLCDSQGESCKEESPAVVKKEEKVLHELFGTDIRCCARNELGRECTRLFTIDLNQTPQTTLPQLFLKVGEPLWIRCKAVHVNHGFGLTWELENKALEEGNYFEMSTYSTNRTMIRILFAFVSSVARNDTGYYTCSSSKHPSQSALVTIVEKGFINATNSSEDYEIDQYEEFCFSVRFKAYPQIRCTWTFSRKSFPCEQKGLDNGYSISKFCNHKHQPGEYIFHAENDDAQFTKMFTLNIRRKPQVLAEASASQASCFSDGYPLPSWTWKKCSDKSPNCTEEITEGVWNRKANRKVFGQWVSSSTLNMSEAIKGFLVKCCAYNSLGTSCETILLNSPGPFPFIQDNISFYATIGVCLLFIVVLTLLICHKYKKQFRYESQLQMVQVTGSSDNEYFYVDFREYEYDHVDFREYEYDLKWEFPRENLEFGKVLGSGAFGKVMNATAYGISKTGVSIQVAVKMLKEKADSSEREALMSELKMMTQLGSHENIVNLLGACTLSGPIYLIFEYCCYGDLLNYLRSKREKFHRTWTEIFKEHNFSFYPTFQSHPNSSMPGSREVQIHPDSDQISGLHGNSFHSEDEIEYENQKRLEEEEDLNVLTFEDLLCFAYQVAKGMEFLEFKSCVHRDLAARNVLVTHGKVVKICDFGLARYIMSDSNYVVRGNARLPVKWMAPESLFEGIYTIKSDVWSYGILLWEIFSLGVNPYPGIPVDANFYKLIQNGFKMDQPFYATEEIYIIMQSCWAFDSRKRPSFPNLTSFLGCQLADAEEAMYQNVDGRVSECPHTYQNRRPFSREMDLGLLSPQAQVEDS
Test: Engineered BA/F3 cell growth assay, FLT3 ITD/D835Y
Format: cell-based, murine
Conditions: 3 d growth
How it was run: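 IC50 derived from CellTiter-Glo ATP luminescence after 3 days at 37 °C, 5% CO2, over eight 1:3 dilutions from 1 μM (0.2% DMSO final). Cells: IL-3-independent murine Ba/F3 expressing full-length FLT3 ITD/D835Y, 1×10^4 per well.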

Row | GI50 [µM] | Compound
1 | 0.0001 to 10 | COc1ncc(NC(=O)Cc2ccc(-c3cnc4[nH]c(-c5ccc(C#N)nc5)cc4c3)cc2F)cc1C(F)(F)F [Compound P-0011, 2-[4-[2-(6-cyano-3-pyridyl)-1H-pyrrolo[2,3-b]pyridin-5-yl]-2-fluoro-phenyl]-N-[6-methoxy-5-(trifluoromethyl)-3-pyridyl]acetamide]
2 | 0.0001 to 10 | COc1ncc(NC(=O)Cc2ccc(-c3cnc4[nH]c(-c5ccnc(C#N)c5)cc4c3)cc2F)cc1C(F)(F)F [Compound P-0013, 2-[4-[2-(2-cyano-4-pyridyl)-1H-pyrrolo[2,3-b]pyridin-5-yl]-2-fluoro-phenyl]-N-[6-methoxy-5-(trifluoromethyl)-3-pyridyl]acetamide]
3 | 0.0001 to 10 | COc1ncc(NC(=O)Cc2ccc(-c3cnc4[nH]c(-c5ccc(C#N)nc5)cc4c3)c(F)c2)cc1C(F)(F)F [Compound P-0014, 2-[4-[2-(6-cyano-3-pyridyl)-1H-pyrrolo[2,3-b]pyridin-5-yl]-3-fluoro-phenyl]-N-[6-methoxy-5-(trifluoromethyl)-3-pyridyl]acetamide]
4 | 0.0001 to 10 | COc1ncc(NC(=O)Cc2ccc(-c3cnc4[nH]c(-c5cnn(C(F)F)c5)cc4c3)cc2F)cc1C(F)(F)F [Compound P-0015, 2-[4-[2-[1-(difluoromethyl)pyrazol-4-yl]-1H-pyrrolo[2,3-b]pyridin-5-yl]-2-fluoro-phenyl]-N-[6-methoxy-5-(trifluoromethyl)-3-pyridyl]acetamide]
5 | 0.0001 to 10 | COc1ncc(NC(=O)Cc2ccc(-c3cnc4[nH]c(-c5ccnc(C#N)c5)cc4c3)c(F)c2)cc1C(F)(F)F [Compound P-0016, 2-[4-[2-(2-cyano-4-pyridyl)-1H-pyrrolo[2,3-b]pyridin-5-yl]-3-fluoro-phenyl]-N-[6-methoxy-5-(trifluoromethyl)-3-pyridyl]acetamide]
6 | 0.0001 to 10 | Cn1cc(Nc2ncc(-c3ccc(CC(=O)Nc4cc(C(F)(F)F)ccn4)cc3F)cn2)cn1 [Compound P-0017, 2-[3-fluoro-4-[2-[(1-methylpyrazol-4-yl)amino]pyrimidin-5-yl]phenyl]-N-[4-(trifluoromethyl)-2-pyridyl]acetamide]
7 | 0.0001 to 10 | Cn1cnc(Nc2ncc(-c3ccc(CC(=O)Nc4cc(C(F)(F)F)ccn4)cc3F)cn2)c1 [Compound P-0018, 2-[3-fluoro-4-[2-[(1-methylimidazol-4-yl)amino]pyrimidin-5-yl]phenyl]-N-[4-(trifluoromethyl)-2-pyridyl]acetamide]
8 | 0.0001 to 10 | Cn1cc(Nc2ncc(-c3cc(F)c(CC(=O)Nc4cc(C(F)(F)F)ccn4)cc3F)cn2)cn1 [Compound P-0019, 2-[2,5-difluoro-4-[2-[(1-methylpyrazol-4-yl)amino]pyrimidin-5-yl]phenyl]-N-[4-(trifluoromethyl)-2-pyridyl]acetamide]
9 | 0.0001 to 10 | Cn1cnc(Nc2ncc(-c3cc(F)c(CC(=O)Nc4cc(C(F)(F)F)ccn4)cc3F)cn2)c1 [Compound P-0020, 2-[2,5-difluoro-4-[2-[(1-methylimidazol-4-yl)amino]pyrimidin-5-yl]phenyl]-N-[4-(trifluoromethyl)-2-pyridyl]acetamide]
10 | 0.0001 to 10 | O=C(Cc1cc(F)c(-c2cnc(Nc3cnn(C(F)F)c3)nc2)cc1F)Nc1cc(C(F)(F)F)ccn1 [Compound P-0021, 2-[4-[2-[[1-(difluoromethyl)pyrazol-4-yl]amino]pyrimidin-5-yl]-2,5-difluoro-phenyl]-N-[4-(trifluoromethyl)-2-pyridyl]acetamide]
11 | 0.0001 to 10 | Cn1cnc(Nc2ncc(-c3ccc(CC(=O)Nc4cc(C(F)(F)F)ccn4)cc3)cn2)c1 [Compound P-0022, 2-[4-[2-[(1-methylimidazol-4-yl)amino]pyrimidin-5-yl]phenyl]-N-[4-(trifluoromethyl)-2-pyridyl]acetamide]
12 | 0.0001 to 10 | O=C(Cc1ccc(-c2cnc(Nc3cnn(C(F)F)c3)nc2)cc1)Nc1cc(C(F)(F)F)ccn1 [Compound P-0023, 2-[4-[2-[[1-(difluoromethyl)pyrazol-4-yl]amino]pyrimidin-5-yl]phenyl]-N-[4-(trifluoromethyl)-2-pyridyl]acetamide]
13 | 0.0001 to 10 | COc1cc(-c2cc3cc(-c4ccc(CC(=O)Nc5cncc(C(F)(F)F)c5)cc4F)cnc3[nH]2)ccn1 [Compound P-0200, 2-(3-fluoro-4-(2-(2-methoxypyridin-4-yl)-1H-pyrrolo[2,3-b]pyridin-5-yl)phenyl)-N-(5-(trifluoromethyl)pyridin-3-yl)acetamide]
14 | 0.0001 to 10 | O=C(Cc1ccc(-c2cnc3[nH]c(-c4ccnc(N5CCOCC5)c4)cc3c2)c(F)c1)Nc1cncc(C(F)(F)F)c1 [Compound P-0201, 2-[3-fluoro-4-[2-(2-morpholino-4-pyridyl)-1H-pyrrolo[2,3-b]pyridin-5-yl]phenyl]-N-[5-(trifluoromethyl)-3-pyridyl]acetamide]
15 | 0.0001 to 10 | CCOc1n[nH]c2ncc(-c3ccc(CC(=O)Nc4cnc(OC)c(C(F)(F)F)c4)cc3F)cc12 [Compound P-0202, 2-[4-(3-ethoxy-1H-pyrazolo[3,4-b]pyridin-5-yl)-3-fluoro-phenyl]-N-[6-methoxy-5-(trifluoromethyl)-3-pyridyl]acetamide]
16 | 0.0001 to 10 | COc1ncc(NC(=O)Cc2ccc(-c3cnc4[nH]nc(N)c4c3)c(F)c2)cc1C(F)(F)F [Compound P-0203, 2-[4-(3-amino-1H-pyrazolo[3,4-b]pyridin-5-yl)-3-fluoro-phenyl]-N-[6-methoxy-5-(trifluoromethyl)-3-pyridyl]acetamide]
17 | 0.0001 to 10 | CC(C)(O)C#Cc1cc2cc(-c3ccc(CC(=O)Nc4cncc(C(F)(F)F)c4)cc3)cnc2[nH]1 [Compound P-0204, 2-[4-[2-(3-hydroxy-3-methyl-but-1-ynyl)-1H-pyrrolo[2,3-b]pyridin-5-yl]phenyl]-N-[5-(trifluoromethyl)-3-pyridyl]acetamide]
18 | 0.0001 to 10 | Cn1cc(Nc2ncc(-c3ccc(CC(=O)Nc4cncc(C(F)(F)F)c4)cc3F)cn2)cn1 [Compound P-0205, 2-[3-fluoro-4-[2-[(1-methylpyrazol-4-yl)amino]pyrimidin-5-yl]phenyl]-N-[5-(trifluoromethyl)-3-pyridyl]acetamide]
19 | 0.0001 to 10 | COc1ncc(NC(=O)Cc2ccc(-c3cnc(Nc4cnn(C)c4)nc3)c(F)c2)cc1C(F)(F)F [Compound P-0206, 2-[3-fluoro-4-[2-[(1-methylpyrazol-4-yl)amino]pyrimidin-5-yl]phenyl]-N-[6-methoxy-5-(trifluoromethyl)-3-pyridyl]acetamide]
20 | 0.0001 to 10 | Cn1cc(Nc2ncc(-c3cc(F)c(CC(=O)Nc4cncc(C(F)(F)F)c4)cc3F)cn2)cn1 [Compound P-0207, 2-[2,5-difluoro-4-[2-[(1-methylpyrazol-4-yl)amino]pyrimidin-5-yl]phenyl]-N-[5-(trifluoromethyl)-3-pyridyl]acetamide]
21 | 0.0001 to 10 | COc1ncc(NC(=O)Cc2cc(F)c(-c3cnc(Nc4cnn(C)c4)nc3)cc2F)cc1C(F)(F)F [Compound P-0208, 2-[2,5-difluoro-4-[2-[(1-methylpyrazol-4-yl)amino]pyrimidin-5-yl]phenyl]-N-[6-methoxy-5-(trifluoromethyl)-3-pyridyl]acetamide]
22 | 0.0001 to 10 | O=C(Cc1ccc(-c2cnc(Nc3cnn(C(F)F)c3)nc2)cc1)Nc1cncc(C(F)(F)F)c1 [Compound P-0209, 2-[4-[2-[[1-(difluoromethyl)pyrazol-4-yl]amino]pyrimidin-5-yl]phenyl]-N-[5-(trifluoromethyl)-3-pyridyl]acetamide]
23 | 0.0001 to 10 | Cc1ncc(NC(=O)Cc2ccc(-c3cnc(Nc4cnn(C(F)F)c4)nc3)cc2)cc1C(F)(F)F [Compound P-0210, 2-[4-[2-[[1-(difluoromethyl)pyrazol-4-yl]amino]pyrimidin-5-yl]phenyl]-N-[6-methyl-5-(trifluoromethyl)-3-pyridyl]acetamide]
24 | 0.0001 to 10 | COc1ncc(NC(=O)Cc2ccc(-c3cnc(Nc4cnn(C(F)F)c4)nc3)cc2)cc1C(F)(F)F [Compound P-0211, 2-[4-[2-[[1-(difluoromethyl)pyrazol-4-yl]amino]pyrimidin-5-yl]phenyl]-N-[6-methoxy-5-(trifluoromethyl)-3-pyridyl]acetamide]
25 | 0.0001 to 10 | COc1ncc(NC(=O)Cc2ccc(-c3cnc4[nH]nc(OC)c4c3)cc2)cc1C(F)(F)F [Compound P-0212, 2-[4-(3-methoxy-1H-pyrazolo[3,4-b]pyridin-5-yl)phenyl]-N-[6-methoxy-5-(trifluoromethyl)-3-pyridyl]acetamide]
